Data from PMC7793975, “Design and Optimization of Quinazoline Derivatives: New Non-nucleoside Inhibitors of Bovine Viral Diarrhea Virus” (Frontiers in Chemistry, 2020).
Where two headings read alike, the source gives them in different places.

Legend:
MDBK cells = assay: Cytotoxicity assay (MTS/PMS); details: MDBK cells, 3 days
Procedure: (§1) (A) Cytotoxicity. Sub-confluent MDBK cell monolayers grown in 96-well plates were treated with 2-fold serial dilutions of each compound in IM. Mock-treated cells were added as control. Cells were incubated and allowed to proliferate for 3 days at 37°C and 5% CO2. Cell viability was then determined by the MTS/PMS method. (B) Antiviral activity. Sub-confluent MDBK cell monolayers grown in 96-well plates were infected with BVDV NADL (MOI = 0.01) and treated with different concentrations of the compounds. Mock-infected cells and mock-treated infected cells were included as controls in each plate. After 3 days at 37°C and 5% CO2, cell viability was determined by the MTS/PMS method, and the percentage of the viral CPE inhibition was calculated.
(§2) MDBK cells were seeded in 96-well plates at a density of 1 × 10^4 cells per well in GM. After 24 h, the culture medium was removed, monolayers were washed twice with phosphate-buffered saline (PBS), and serial dilutions of the test compounds were made in E-MEM supplemented with donor horse serum (DHS, Gibco, IM) and added. Cultures were incubated for 3 days at 37°C, and then, cell viability was determined by the MTS/PMS method according to the manufacturer's instructions (Promega). After incubation for 3 h at 37°C and 5% CO2, the absorbance was determined at 490 nm. The 50% cytotoxic concentration (CC50) was defined as the concentration of compound that inhibited the proliferation of exponentially growing cells by 50% and was calculated by interpolation in dose–response curves.

BVDV type 1 NADL strain = assay: Anti-BVDV assay (CPE reduction, MTS/PMS); type: cell-based, Bovine viral diarrhea virus; details: for EC50: BVDV NADL in MDBK cells, MOI 0.01, 3 days, reduces viral CPE by 50%, Inactive: <50% of inhibition of CPE at MNCC; for SI (CC50/EC50): in vitro selectivity index, MDBK cells / BVDV NADL
Procedure: (A) Cytotoxicity. […] Mock-treated cells were added as control. […] (B) Antiviral activity.
Madin-Darby bovine kidney cells (MDBK NBL-1; ATCC CCL-22) were grown in Eagle's Minimum Essential Medium (E-MEM), supplemented with 10% biotechnological fetal bovine serum (Internegocios, Argentina) (GM) at 37°C and 5% CO2. The BVDV type 1 NADL strain, cytopathic biotype (BVDV-1, ATCC VR 534), was provided by Dr. Laura Weber (INTA Castelar, Argentina).
Then, serial dilutions of the test compounds in IM were added. […] After incubation for 3 days at 37°C and 5% CO2, the culture medium was removed, cell monolayers were washed twice with PBS, and IM supplemented with MTS/PMS was added to each well. The absorbance of each well was read at 490 nm. The EC50 was defined as the concentration of compound that prevented 50% of the virus-induced CPE and was calculated by interpolation in dose–response curves.

[1] = Cytotoxicity assay (MTS/PMS); details: bovine
Procedure: as §1, §2

[2] = Bovine viral diarrhea virus isolates and strains, MDBK, 72 h, read-out: EC50

| Compound | MNCC (maximum non-cytotoxic concentration) (MDBK cells) [µM] | EC50 (BVDV type 1 NADL strain) | CC50 at 3 days ([1]; MDBK cells) [µM] | EC50 (BVDV type 1 NADL strain; [2]) [µM] | SI (CC50/EC50) (BVDV type 1 NADL strain) | CC50 at 3 days [1] [µM] |
| --- | --- | --- | --- | --- | --- | --- |
| c1ccc(-c2nc(NCc3cccnc3)c3ccccc3n2)cc1 [Compound 1.1] | 12.0 ± 0.1 | Inactive^f |  |  |  |  |
| [O-][n+]1ccc(CNc2nc(-c3ccccc3)nc3ccccc23)cc1 [Compound 1.13, 4-{[(2-Phenylquinazolin-4-yl)amino]methyl}pyridine 1-oxide] |  | Inactive | > 100 |  |  |  |
| Cc1ccc(CNc2nc(-c3ccccc3)nc3ccccc23)cc1 [Compound 1.2] | 6.0 ± 0.2 | Inactive |  |  |  |  |
| c1ccc(-c2nc(NCCN3CCOCC3)c3ccccc3n2)cc1 [Compound 1, N-(2-morpholinoethyl)-2-phenylquinazolin-4-amine] | 10.9 ± 1.4 |  | 55.9 ± 8.2 | 9.7 ± 0.5 | 5.8 |  |
| O=[N+]([O-])c1ccc(-c2nc(NCCN3CCCCC3)c3ccccc3n2)cc1 [Compound 1.15, 2-(4-Nitrophenyl)-N-[2-(piperidin-1-yl)ethyl]quinazolin-4-amine] | 14.6 ± 3.1 |  | 30.2 ± 0.5 | 5.8 ± 0.6 | 5.2 |  |
| CN1CCN(c2ncnc3cc(Cl)ccc23)CC1 [Compound 1.24, 7-Chloro-4-(4-Methylpiperazin-1-yl)quinazoline] |  |  |  | 9.3 ± 2.1 | >10.8 | > 100 |
| Clc1ccc2c(NCCN3CCOCC3)ncnc2c1 [Compound 1.21, 7-Chloro-N-(2-Morpholinoethyl)quinazolin-4-amine] | 17.3 ± 5.2 |  | 59.3 ± 10.7 | 2.3 ± 0.5 | 25.8 |  |
| c1ccc(CNc2nc(-c3ccccc3)nc3ccccc23)cc1 [Compound 1.4] | 6.0 ± 0.3 | Inactive |  |  |  |  |
| CC1(C)CC(Nc2nc(-c3ccccc3)nc3ccccc23)CC(C)(C)N1 [Compound 1.12, 2-Phenyl-N-(2,2,6,6-tetramethylpiperidin-4-yl)quinazolin-4-amine] | 3.3 ± 0.7 |  | 7.4 ± 0.03 | 1.4 ± 0.3 | 5.3 |  |
| CN1CCN(c2nc(-c3ccc([N+](=O)[O-])cc3)nc3ccccc23)CC1 [Compound 1.14, 4-(4-Methylpiperazin-1-yl)-2-(4-nitrophenyl)quinazoline] | 8.7 ± 1.6 | Inactive | 13 ± 3.4 |  |  |  |
| Cc1ccc(-c2nc(N3CCN(CCO)CC3)c3ccccc3n2)cc1 [Compound 1.20, 2-{4-[2-(p-Tolyl)quinazolin-4-yl]piperazin-1-yl}ethanol] | 30.5 ± 2.1 |  | 55.4 ± 4 | 8.5 ± 3.4 | 6.5 |  |
| c1ccc(CN2CCC(Nc3nc(-c4ccccc4)nc4ccccc34)CC2)cc1 [Compound 1.11, N-(1-Benzylpiperidin-4-yl)-2-phenylquinazolin-4-amine] | 7.5 ± 0.1 | Inactive | 22.2 ± 1.2 |  |  |  |
| c1ccc(-c2nc(NCCN3CCCCC3)c3ccccc3n2)cc1 [Compound 1.10, 2-Phenyl-N-[2-(Piperidin-1-yl)ethyl]quinazolin-4-amine] | 6.4 ± 1.1 |  | 19.6 ± 6.3 | 1.4 ± 0.8 | 14.0 |  |
| CN1CCN(c2nc(-c3ccccc3)nc3ccccc23)CC1 [Compound 1.8, 4-(4-Methylpiperazin-1-yl)-2-phenylquinazoline] | 19.8 ± 4.0 |  | 68 ± 8.4 | 1.4 ± 0.1 | 48.6 |  |
| Clc1ccc2c(NCCN3CCCCC3)ncnc2c1 [Compound 1.23, 7-Chloro-N-[2-(Piperidin-1-yl)ethyl]quinazolin-4-amine] |  |  | > 100 | 4.1 ± 2.2 | >24.4 |  |
| OCCN1CCN(c2nc(-c3ccc(Cl)cc3Cl)nc3ccccc23)CC1 [Compound 1.17, 2-{4-[2-(2,4-Dichlorophenyl)quinazolin-4-yl]piperazin-1-yl}ethanol] | 17.4 ± 3.0 | Inactive | 31.5 ± 5.7 |  |  |  |
| OCCN1CCN(c2ncnc3cc(Cl)ccc23)CC1 [Compound 1.22, 2-[4-(7-Chloroquinazolin-4-yl)piperazin-1-yl]ethan-1-ol] |  |  | > 100 | 25.8 ± 1.2 |  |  |
| CCCCCCNc1nc(-c2ccccc2)nc2ccccc12 [Compound 1.6, N-Hexyl-2-phenylquinazolin-4-amine] | 12.0 ± 0.2 | Inactive |  |  |  |  |
| COc1ccc(-c2nc(N3CCN(C)CC3)c3ccccc3n2)cc1 [Compound 1.19, 2-(4-Methoxyphenyl)-4-(4-Methylpiperazin-1-yl)quinazoline] | 18.3 ± 0.3 |  | 37.1 ± 0.2 | 12.8 ± 0.3 | 2.9 |  |
| O=[N+]([O-])c1ccc(-c2nc(N3CCN(CCO)CC3)c3ccccc3n2)cc1 [Compound 1.16, 2-{4-[2-(4-Nitrophenyl)quinazolin-4-yl]piperazin-1-yl}ethanol] | 5.9 ± 1.4 | Inactive | 12 ± 2.1 |  |  |  |
| CN(C)CCCNc1nc(-c2ccccc2)nc2ccccc12 [Compound 1.7, N^1,N^1-Dimethyl-N^3-(2-phenylquinazolin-4-yl)propane-1,3-diamine] | 18.6 ± 2.6 |  | 57 ± 0.01 | 4.6 ± 1 | 12.4 |  |
| FC(F)(F)c1cccc(CNc2nc(-c3ccccc3)nc3ccccc23)c1 [Compound 1.5] | 6.0 ± 0.1 | Inactive |  |  |  |  |
| COc1ccc(Nc2nc(-c3ccccc3)nc3ccccc23)cc1 [Compound 1.3] | 6.0 ± 0.2 | Inactive |  |  |  |  |
| CN(C)c1ccc(-c2nc(N3CCN(CCO)CC3)c3ccccc3n2)cc1 [Compound 1.18, 2-(4-{2-[4-(N,N-Dimethylamino)phenyl]quinazolin-4-yl}piperazin-1-yl)ethanol] | 26.1 ± 1.2 |  | 61 ± 2.5 | 3.5 ± 0.6 | 17.4 |  |
